Assay results published in the supplement of paper PMC11061612.

Legend:
Assay in all cases: combination Emax (second highest fraction inhibited in the dose matrix, 72 h); higher = more inhibition; extreme values may be limits of the assay
[1] = system: OVCAR-8 (Ovarian Carcinoma)
Outline: (§1)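 After 24 hours at 37°C and 5% CO2 in 1536-well plates, cells in DMEM/F12 or RPMI plus 10% FBS received two-drug dose matrices for 72 hours. Viability came from CellTiter-Glo 2.0 luminescence and was scaled as inhibition, anchored at 0 by vehicle wells and at 1 by blank wells. Combination Emax is taken as the second-highest inhibition in the matrix, and Bliss excess as the observed combination effect less EA + EB − EA·EB, with EA and EB the single-agent effects.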

[2] = system: NCI-H28 (Mesothelioma)
Outline: as §1

[3] = system: SW626 (Colorectal Carcinoma)
Outline: as §1

[4] = system: MDA-MB-468 (Breast Carcinoma)
Outline: as §1

[5] = system: HO-1-u-1 (Oral Cavity Carcinoma)
Outline: as §1

[6] = system: SW1116 (Colorectal Carcinoma)
Outline: as §1

[7] = system: NCI-H2795 (Mesothelioma)
Outline: as §1

[8] = system: NB14 (Neuroblastoma)
Outline: as §1

[9] = system: CTB-1 (B-Cell Non-Hodgkin's Lymphoma)
Outline: as §1

[10] = system: K5 (Thyroid Gland Carcinoma)
Outline: as §1

[11] = system: 639-V (Bladder Carcinoma)
Outline: as §1

[12] = system: HARA (Squamous Cell Lung Carcinoma)
Outline: as §1

[13] = system: LB771-HNC (Head and Neck Carcinoma)
Outline: as §1

[14] = system: CAL-54 (Kidney Carcinoma)
Outline: as §1

[15] = system: SW1271 (Small Cell Lung Carcinoma)
Outline: as §1

[16] = system: PCI-30 (Head and Neck Carcinoma)
Outline: as §1

[17] = system: MHH-PREB-1 (B-Cell Non-Hodgkin's Lymphoma)
Outline: as §1

[18] = system: KYSE-410 (Esophageal Squamous Cell Carcinoma)
Outline: as §1

[19] = system: 8305C (Thyroid Gland Carcinoma)
Outline: as §1

[20] = system: LU-139 (Small Cell Lung Carcinoma)
Outline: as §1

| SMILES | combination Emax [1] | combination Emax [2] | combination Emax [3] | combination Emax [4] | combination Emax [5] | combination Emax [6] | combination Emax [7] | combination Emax [8] | combination Emax [9] | combination Emax [10] | combination Emax [11] | combination Emax [12] | combination Emax [13] | combination Emax [14] | combination Emax [15] | combination Emax [16] | combination Emax [17] | combination Emax [18] | combination Emax [19] | combination Emax [20] |
| --- | --- | --- | --- | --- | --- | --- | --- | --- | --- | --- | --- | --- | --- | --- | --- | --- | --- | --- | --- | --- |
| CN(C)CCCOc1ccc(-c2ccc3ncc4c(c3c2)n(C2CCOCC2)c(=O)n4C)cn1 [AZD0156] + CCN(CCO)CCCOc1ccc2c(Nc3cc(CC(=O)Nc4cccc(F)c4)[nH]n3)ncnc2c1 [AZD2811] (first compound max 1 µM, 7x7, partner max 1 µM) | 0.26 | 0.149 | 0.0884 | 0.363 | 0.209 | 0.0823 | 0.291 | 0.857 | 0.501 | 0.244 | 0.179 | 0.289 | 0.142 | 0.134 | 0.201 | 0.192 | 0.154 | 0.0555 | 0.29 | 0.279 |
| COc1cccc(OCCCN)c1-c1cc(Nc2cnc(C#N)cn2)n[nH]1 [Prexasertib] + Cc1cc2ncnn2cc1Nc1ncc2c(n1)n(C1CCOCC1)c(=O)n2C [AZD7648] (first compound max 1 µM, 7x7, partner max 10 µM) | 0.984 | 0.639 | 0.75 | 0.533 | 0.993 | 0.463 | 0.765 | 1 | 0.922 | 0.704 | 0.362 | 0.953 | 0.596 | 0.821 | 0.678 | 0.721 | 0.947 | 0.504 | 0.724 | 0.504 |
| Cc1c2c(nn1C)CSCc1cc(n(C)n1)CSc1cc(c3ccccc3c1)OCCCc1c(C(=O)O)n(C)c3c-2c(Cl)ccc13 [AZD5991] + C=CCn1c(=O)c2cnc(Nc3ccc(N4CCN(C)CC4)cc3)nc2n1-c1cccc(C(C)(C)O)n1 [AZD1775] (first compound max 1 µM, partner max 1 µM) | 0.865 | 0.416 | 0.559 | 0.615 | 0.677 | 0.378 | 0.881 | 1 | 0.916 | 0.482 | 0.448 | 0.89 | 0.745 | 0.702 | 0.582 | 0.317 | 0.853 | 0.625 | 0.646 | 0.555 |
| CC1(C)CCC(CN2CCN(c3ccc(C(=O)NS(=O)(=O)c4ccc(NCC5CCOCC5)c([N+](=O)[O-])c4)c(Oc4cnc5[nH]ccc5c4)c3)CC2)=C(c2ccc(Cl)cc2)C1 [Venetoclax] + C[C@@H](Nc1cc(F)cc(F)c1)c1cc(C(=O)N(C)C)cc2c(=O)cc(N3CCOCC3)oc12 [AZD8186] (first compound max 1 µM, 7x7, partner max 3 µM) | 0.139 | 0.115 | 0.127 | 0.387 | 0.267 | 0.0998 | 0.441 | 1 | 0.288 | 0.735 | 0.321 | 0.607 | 0.283 | 0.533 | 0.151 | 0.19 | 0.21 | 0.172 | 0.441 | 0.279 |
| CC1(C)CCC(CN2CCN(c3ccc(C(=O)NS(=O)(=O)c4ccc(NCC5CCOCC5)c([N+](=O)[O-])c4)c(Oc4cnc5[nH]ccc5c4)c3)CC2)=C(c2ccc(Cl)cc2)C1 [Venetoclax] + Cn1cnc2c(F)c(Nc3ccc(Br)cc3Cl)c(C(=O)NOCCO)cc21 [Selumetinib] (first compound max 1 µM, 7x7, partner max 3 µM) | 0.153 | 0.142 | 0.507 | 0.315 | 0.286 | 0.453 | 0.562 | 0.974 | 0.105 | 0.742 | 0.27 | 0.617 | 0.132 | 0.205 | 0.432 | 0.206 | 0.147 | 0.222 | 0.397 | 0.307 |
| Cc1cc2ncnn2cc1Nc1ncc2c(n1)n(C1CCOCC1)c(=O)n2C [AZD7648] + C=CCn1c(=O)c2cnc(Nc3ccc(N4CCN(C)CC4)cc3)nc2n1-c1cccc(C(C)(C)O)n1 [AZD1775] (first compound max 10 µM, partner max 1 µM) | 0.81 | 0.42 | 0.513 | 0.526 | 0.617 | 0.295 | 0.602 | 0.998 | 0.905 | 0.665 | 0.425 | 0.797 | 0.455 | 0.755 | 0.633 | 0.375 | 0.823 | 0.361 | 0.7 | 0.615 |
